Laboratory results: patent US9388148B2, “Acylaminocycloalkyl compounds suitable for treating disorders that respond to modulation of dopamine D3 receptor” (AbbVie Deutschland GmbH & Co. KG, priority 2013, dated 2016)

Tests used:
[1] = molecular target: T1, human dopamine D2L receptors (long isoform) (Homo sapiens, UniProt P14416); assay: Dopamine D2L receptor binding ([125I]iodospiperone displacement); conditions: selectivity ratio, human D2L vs human D3 binding
T1 construct: expressed in transfected cells; host or cells: HEK-293
T1 sequence (P14416 whole entry, canonical isoform): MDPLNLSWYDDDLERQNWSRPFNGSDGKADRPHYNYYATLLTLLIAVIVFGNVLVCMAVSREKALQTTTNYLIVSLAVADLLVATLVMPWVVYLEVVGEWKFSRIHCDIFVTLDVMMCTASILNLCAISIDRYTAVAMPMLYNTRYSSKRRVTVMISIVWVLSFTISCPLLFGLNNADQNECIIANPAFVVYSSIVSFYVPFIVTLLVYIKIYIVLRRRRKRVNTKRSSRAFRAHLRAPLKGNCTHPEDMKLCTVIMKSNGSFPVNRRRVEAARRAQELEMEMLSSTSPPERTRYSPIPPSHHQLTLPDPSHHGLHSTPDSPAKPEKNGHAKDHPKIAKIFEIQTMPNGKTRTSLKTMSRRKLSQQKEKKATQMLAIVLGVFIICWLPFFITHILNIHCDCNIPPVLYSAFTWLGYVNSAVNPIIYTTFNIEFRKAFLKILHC
Method: The substance to be tested was either dissolved in methanol/Chremophor® (BASF SE) or in dimethyl sulfoxide and then diluted with water to the desired concentration.
Each assay mixture was run in triplicate. • The incubation buffer contained 50 mM tris, 120 mM NaCl, 5 mM KCl, 2 mM CaCl2, 2 mM MgCl2 and 0.1% bovine serum albumin, 10 μM quinolone and 0.1% ascorbic acid (prepared fresh daily). […] Each assay mixture was run in triplicate. • The incubation buffer contained 50 mM tris, 120 mM NaCl, 5 mM KCl, 2 mM CaCl2, 2 mM MgCl2 and 0.1% bovine serum albumin. The buffer was adjusted to pH 7.4 with HCl. c) Measurement and analysis: • After having been incubated at 25° C. for 60 minutes, the assay mixtures were filtered through a Whatman GF/B glass fiber filter under vacuum using a cell col-lecting device. The filters were transferred to scintillation viols using a filter transfer system. After 4 ml of Ultima Gold® (Packard) have been added, the samples were shaken for one hour and the radioactivity was then counted in a Beta-Counter (Packard, Tricarb 2000 or 2200CA).

[2] = Determination of the microsomal half-life / microsomal clearance; assay type: in vitro ADME; conditions: pH 7.4; human liver microsomes, 0.5 μM test substance, 0.25 mg protein/ml, NADPH, 37° C.; read-out: Human mCl (mikrosomal clearance)
Method: The metabolic stability of the compounds of the invention was determined in the following assay.
The test substances were incubated in a concentration of 0.5 μM as follows:
0.5 μM test substance are preincubated together with liver microsomes from different species (from rat, human or other species) (0.25 mg of microsomal protein/ml) in 0.05 M potassium phosphate buffer of pH 7.4 in microtiter plates at 37° C. for 5 min. The reaction is started by adding NADPH (1 mg/mL). After 0, 5, 10, 15, 20 and 30 min, 50 μl aliquots are removed, and the reaction is immediately stopped and cooled with the same volume of acetonitrile. The samples are frozen until analyzed. The remaining concentration of undegraded test substance is determined by MSMS. The half-life (T1/2) is determined from the gradient of the signal of test substance/unit time plot, it being possible to calculate the half-life of the test substance, assuming first order kinetics, from the decrease in the concentration of the compound with time. The microsomal clearance (mC1) is calculated from mC1=1n2/T1/2/(content of microsomal protein in mg/ml)×1000 [ml/min/mg] (modified from references: Di, The Society for Biomoleculur Screening, 2003, 453-462; Obach, DMD, 1999 vol 27. N 11, 1350-1359).

D2/D3, Ki (D2L)/Ki (D3) [1]	microsomal CLint at 0.5 μM [2] [µL/min/mg]	SMILES
+++ (+++ >50)	20 to 120	COCCc1cc(N2CCN(CCC3CCC(NC(=O)C4CCC(O)CC4)CC3)C[C@H]2C)nc(C(C)(C)C)n1 (stereo partly drawn) [Compound 33, N-[4-[2-[(3R)-4-[2-tert-butyl-6-(2-methoxyethyl)pyrimidin-4-yl]-3-methyl-piperazin-1-yl]ethyl]cyclohexyl]-4-hydroxy-cyclohexanecarboxamide]
+++ (+++ >50)	20 to 120	COCCc1cc(N2CCN(CC[C@H]3CC[C@H](NC(=O)[C@H]4CC[C@H](O)CC4)CC3)C[C@H]2C)nc(C(C)(C)C)n1 [Compound 34, trans-N-[trans-4-[2-[(3R)-4-[2-tert-butyl-6-(2-methoxyethyl)pyrimidin-4-yl]-3-methyl-piperazin-1-yl]ethyl]cyclohexyl]-4-hydroxy-cyclohexanecarboxamide]
+++ (+++ >50)	20 to 120	COCc1cc(N2CCN(CC[C@H]3CC[C@H](NC(=O)[C@H]4CC[C@H](O)CC4)CC3)CC2)nc(C(C)(C)C)n1 [Compound 37, trans-N-[trans-4-[2-[4-[2-tert-butyl-6-(methoxymethyl)pyrimidin-4-yl]piperazin-1-yl]ethyl]cyclohexyl]-4-hydroxy-cyclohexanecarboxamide]
++ (++ >20)	20 to 120	CC(C)(C)c1nc(C(F)F)cc(N2CCN(CC[C@H]3CC[C@@H](NC(=O)[C@H]4CC[C@H](O)CC4)CC3)CC2)n1 [Compound 30, Trans-N-[cis-4-[2-[4-[2-tert-butyl-6-(difluoromethyl)pyrimidin-4-yl]piperazin-1-yl]ethyl]cyclohexyl]-4-hydroxy-cyclohexanecarboxamide]
+ (+ >10)	20 to 120	CC(C)(C)c1nc(C2CCCC2)cc(N2CCN(CC[C@H]3CC[C@H](NC(=O)[C@H]4CC[C@H](O)CC4)CC3)CC2)n1 [Compound 35, trans-N-[trans-4-[2-[4-(2-tert-butyl-6-cyclopentyl-pyrimidin-4-yl)piperazin-1-yl]ethyl]cyclohexyl]-4-hydroxy-cyclohexanecarboxamide]
++ (++ >20)	20 to 120	COCCc1cc(N2CCN(CC[C@H]3CC[C@H](NC(=O)[C@H]4CC[C@H](O)CC4)CC3)CC2)nc(C(C)(C)C)n1 [Compound 2, trans-N-[trans-4-[2-[4-[2-tert-butyl-6-(2-methoxyethyl)pyrimidin-4-yl]piperazin-1-yl]ethyl]cyclohexyl]-4-hydroxy-cyclohexanecarboxamide]
+++ (+++ >50)	> 120	CC(C)(C)c1nc(C2CCC2)cc(N2CCN(CC[C@H]3CC[C@@H](NC(=O)[C@H]4CC[C@@H](O)CC4)CC3)CC2)n1.O=C(O)C(F)(F)F [Compound 15, Cis-N-[cis-4-[2-[4-(2-tert-butyl-6-cyclobutyl-pyrimidin-4-yl)piperazin-1-yl]ethyl]cyclohexyl]-4-hydroxy-cyclohexanecarboxamide; 2,2,2-trifluoroacetic acid]
++ (++ >20)	20 to 120	CC(C)(C)c1cc(N2CCN(CC[C@H]3CC[C@H](NC(=O)[C@H]4CC[C@H](O)CC4)CC3)CC2)nc(C(C)(C)C)n1 [Compound 20, trans-N-[trans-4-[2-[4-(2,6-ditert-butylpyrimidin-4-yl)piperazin-1-yl]ethyl]cyclohexyl]-4-hydroxy-cyclohexanecarboxamide]

SMILES	D2/D3, Ki (D2L)/Ki (D3) [1]	microsomal CLint at 0.5 μM [2] [µL/min/mg]
CC(C)(C)c1nc(C2CCC2)cc(N2CCN(CC[C@H]3CC[C@H](NC(=O)[C@H]4C[C@@H](O)C4)CC3)CC2)n1 [Compound 13, Cis-N-[trans-4-[2-[4-(2-tert-butyl-6-cyclobutyl-pyrimidin-4-yl)piperazin-1-yl]ethyl]cyclohexyl]-3-hydroxy-cyclobutanecarboxamide]	++ (++ >20)	> 120
